{"source": "patent US20060253263A1", "about": "“Method to optimize drug selection, dosing and evaluation and to help predict therapeutic response and toxicity from immunosuppressant therapy” (priority 2005, published 2006)", "key": {"[1]": {"test_system": "patients with proliferative LN", "conditions": "59 patients, cited from earlier work; for patients who died during maintenance therapy: followed for as long as 30 months"}, "patients with severe LN": {"test_system": "patients with severe LN", "conditions": "cited from earlier work; for combined end point, complete plus partial remission (number of patients): P=0.009; for complete remission (number of patients) / complete remission (percent of patients) / partial remission (number of patients): induction therapy of LN; for complete remission (number of patients) / complete remission (percent of patients): 140 patients randomized"}, "[2]": {"test_system": "patients with class IV LN", "conditions": "cited from earlier work; for renal remission achieved: then AZA maintenance"}, "[3]": {"test_system": "patients with class IV LN", "conditions": "cited from earlier work"}, "[4]": {"conditions": "human, in vivo"}, "[5]": {"test_system": "rheumatoid arthritis patients", "conditions": "five trials, 300 patients, cited from earlier work"}, "[6]": {"test_system": "rheumatoid arthritis patients", "conditions": "cited from earlier work"}, "[7]": {"biological_target": "T1, dihydropyrimidine dehydrogenase (DPD) (Homo sapiens, UniProt Q12882)", "T1 construct": "host or cells: endogenous enzyme of the body (in vivo drug catabolism)", "T1 sequence (Q12882 4-1025)": "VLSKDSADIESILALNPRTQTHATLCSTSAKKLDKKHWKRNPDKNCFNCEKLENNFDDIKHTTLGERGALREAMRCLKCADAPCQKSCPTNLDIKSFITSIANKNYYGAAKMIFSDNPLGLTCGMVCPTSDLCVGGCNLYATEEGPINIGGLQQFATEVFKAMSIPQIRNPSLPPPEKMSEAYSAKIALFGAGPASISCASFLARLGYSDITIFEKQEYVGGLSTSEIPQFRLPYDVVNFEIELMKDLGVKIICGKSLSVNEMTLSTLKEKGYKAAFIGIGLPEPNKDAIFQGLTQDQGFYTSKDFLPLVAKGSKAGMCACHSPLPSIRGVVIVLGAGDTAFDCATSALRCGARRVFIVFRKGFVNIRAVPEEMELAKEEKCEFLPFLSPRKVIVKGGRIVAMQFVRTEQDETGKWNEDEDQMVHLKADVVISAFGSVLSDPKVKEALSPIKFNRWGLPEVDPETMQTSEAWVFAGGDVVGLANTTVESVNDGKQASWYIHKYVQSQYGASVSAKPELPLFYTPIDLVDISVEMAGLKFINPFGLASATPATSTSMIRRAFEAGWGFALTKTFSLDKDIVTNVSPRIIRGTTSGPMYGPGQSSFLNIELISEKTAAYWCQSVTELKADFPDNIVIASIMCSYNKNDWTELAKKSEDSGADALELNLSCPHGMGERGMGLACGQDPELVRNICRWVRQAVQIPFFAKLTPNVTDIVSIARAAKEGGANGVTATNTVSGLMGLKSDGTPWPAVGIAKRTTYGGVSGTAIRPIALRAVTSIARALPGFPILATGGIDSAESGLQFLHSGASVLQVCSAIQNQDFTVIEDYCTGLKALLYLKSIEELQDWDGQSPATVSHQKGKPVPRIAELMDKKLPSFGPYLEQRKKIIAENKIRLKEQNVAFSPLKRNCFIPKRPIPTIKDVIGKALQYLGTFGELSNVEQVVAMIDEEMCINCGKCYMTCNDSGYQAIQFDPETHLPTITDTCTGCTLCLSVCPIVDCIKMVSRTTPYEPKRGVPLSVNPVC", "conditions": "cited from earlier work"}, "[8]": {"conditions": "cited from earlier work"}, "[9]": {"test_system": "advanced colorectal cancers", "conditions": "5-FU alone; cited from earlier work"}}, "note": "Where two headings read alike, the source gives them in different places.", "data": [{"smiles": "COc1c(C)c2c(c(O)c1C/C=C(\\C)CCC(=O)OCCN1CCOCC1)C(=O)OC2", "note": "[MMF, Mycophenolate mofetil]", "values": [{"measurement": "patients who died during maintenance therapy", "setting": "[1]", "value": "one"}, {"measurement": "patients who developed chronic renal failure during maintenance therapy", "setting": "[1]", "value": "one"}, {"measurement": "combined end point, complete plus partial remission (number of patients)", "setting": "patients with severe LN", "value": 37, "unit": "patients"}, {"measurement": "complete remission (number of patients)", "setting": "patients with severe LN", "value": 16, "unit": "patients"}, {"measurement": "complete remission (percent of patients)", "setting": "patients with severe LN", "value": 23, "unit": "%"}, {"measurement": "partial remission (number of patients)", "setting": "patients with severe LN", "value": "Twenty-one"}]}, {"smiles": "O=P1(N(CCCl)CCCl)NCCCO1", "note": "(stereo not shown) [CYC, Cyclophosphamide]", "values": [{"measurement": "renal remission achieved", "setting": "[2]; high-dose group (six monthly pulses followed by two quarterly pulses IV)", "value": 54, "unit": "%"}, {"measurement": "subsequent renal flares", "setting": "[2]; high-dose group", "value": 29, "unit": "%"}, {"measurement": "renal remission achieved", "setting": "[2]; low-dose group (500 mg biweekly x six pulses IV)", "value": 71, "unit": "%"}, {"measurement": "subsequent renal flares", "setting": "[2]; low-dose group", "value": 27, "unit": "%"}, {"measurement": "patients who died during maintenance therapy", "setting": "[1]", "value": "four"}, {"measurement": "patients who developed chronic renal failure during maintenance therapy", "setting": "[1]", "value": "three"}, {"measurement": "combined end point, complete plus partial remission (number of patients)", "setting": "patients with severe LN", "value": 21, "unit": "patients"}, {"measurement": "deaths", "setting": "patients with severe LN; all in patients randomized to IV CYC", "value": "Three"}, {"measurement": "complete remission (number of patients)", "setting": "patients with severe LN", "value": "four"}, {"measurement": "complete remission (percent of patients)", "setting": "patients with severe LN", "value": 6, "unit": "%"}, {"measurement": "partial remission (number of patients)", "setting": "patients with severe LN", "value": 17, "unit": "patients"}, {"measurement": "renal survival", "setting": "[3]; black patients, at year 5", "value": 71, "unit": "%"}, {"measurement": "renal survival rate", "setting": "[3]; nonblack patients, through 5 years of follow-up", "value": 95, "unit": "%"}]}, {"smiles": "Cn1cnc([N+](=O)[O-])c1Sc1ncnc2nc[nH]c12", "note": "[AZA, azathioprine]", "values": [{"measurement": "6-TG level at maintained therapeutic response", "setting": "[4]", "value": 187, "unit": "pmol"}, {"measurement": "therapeutic range of 6-TG", "setting": "[4]", "value": "140 to 249", "unit": "pmol"}, {"measurement": "patients who developed chronic renal failure during maintenance therapy", "setting": "[1]", "value": "one"}]}, {"smiles": "CN(Cc1cnc2nc(N)nc(N)c2n1)c1ccc(C(=O)N[C@@H](CCC(=O)O)C(=O)O)cc1", "note": "[MTX, methotrexate]", "values": [{"measurement": "more likely than placebo to discontinue treatment due to adverse reactions", "setting": "[5]", "value": "three"}, {"measurement": "people who withdrew due to adverse effects", "setting": "[5]; placebo group seven percent", "value": "twenty-two"}, {"measurement": "fraction of rheumatoid arthritis patients showing major improvement", "setting": "[6]; human, in vivo", "value": "one-third"}, {"measurement": "patients with mild adverse effects", "setting": "[6]; rheumatoid arthritis patients", "value": "up to 60%"}]}, {"smiles": "O=c1[nH]cc(F)c(=O)[nH]1", "note": "[5-FU, 5-Fluorouracil]", "values": [{"measurement": "fraction of a dose transformed by DPD to the inactive dihydrofluorouracil form", "setting": "[7]; in vivo", "value": "more than 80%"}, {"measurement": "fraction of an injected dose rapidly inactivated by DPD", "setting": "[7]; injected dose", "value": "More than 85%"}, {"measurement": "dose excreted unchanged in the urine", "setting": "[8]; normal individuals", "value": 10, "unit": "%"}, {"measurement": "dose excreted unchanged in the urine", "setting": "[8]; people genetically deficient in DPD", "value": 90, "unit": "%"}, {"measurement": "partial remissions", "setting": "[9]", "value": "10-30%"}]}]}
